Blank lines part the entries; values can stand above or below the molecule they belong to. Active and inactive are the calls of the source. No cut-off for these calls is given here.
Legend:
RAW264.7 [1] = assay: Cytotoxicity against mouse RAW264.7 cells at 50 uM by MTT assay relative to control; assay type: functional
RAW264.7 [2] = assay: Anti-inflammatory activity in LPS induced mouse RAW264.7 cells assessed as inhibition of IL-1beta mRNA expression incubated for 12 hrs followed by LPS stimulation and measured after 6 hrs by RT-PCR method; assay type: functional, cell-based
RAW264.7 [3] = assay: Anti-inflammatory activity in LPS induced mouse RAW264.7 cells assessed as inhibition of IL-1beta mRNA expression at 10 uM incubated for 12 hrs followed by LPS stimulation and measured after 6 hrs by RT-PCR method; assay type: functional, cell-based; settings: time 18.0 hrs
RAW264.7 [4] = assay: Anti-inflammatory activity in LPS induced mouse RAW264.7 cells assessed as inhibition of IL-6 mRNA expression at 10 uM incubated for 12 hrs followed by LPS stimulation and measured after 6 hrs by RT-PCR method; assay type: functional, cell-based; settings: time 18.0 hrs
Mus musculus [5] = assay: Reduction in hepatic steatosis in HFCFD-induced NASH C57BL/6JNifdc mouse model assessed as decrease in fatty acids at 25 to 50 mg/kg, po administered once daily for 4 weeks by Oil red-O staining based assay; assay type: functional, organism-based; settings: dose 25-50 mg/kg
Mus musculus [6] = assay: Reduction in hepatic steatosis in HFCFD-induced NASH C57BL/6JNifdc mouse model assessed as decrease in triglycerides at 25 to 50 mg/kg, po administered once daily for 4 weeks by Oil red-O staining based assay; assay type: functional, organism-based; settings: dose 25-50 mg/kg
[7] = biological target: T1, 5'-AMP-activated protein kinase (Mus musculus) (UniProt Q5EG47+Q8BRK8+Q6PAM0+O54950+Q91WG5+Q9R078+Q8BGM7); assay: Agonist activity at AMPK in mouse RAW264.7 cells assessed as stimulation of AMPK phosphorylation at upto 10 uM; assay type: cell-based; settings: filed as agonist
Mus musculus [8] = assay: Anti-fibrosis effect in HFCFD-induced NASH C57BL/6JNifdc mouse model assessed as decrease in collagen accumulation at 25 to 50 mg/kg, po administered once daily for 4 weeks by Sirius red staining based analysis; assay type: functional, organism-based; settings: dose 25-50 mg/kg
RAW264.7 [9] = assay: Antiinflammatory activity in mouse RAW264.7 cells assessed as downregulation of NF-kappaB p65 phosphorylation level at upto 10 uM by Western blot analysis; assay type: functional, cell-based
Mus musculus [10] = assay: Reduction in hepatic steatosis in HFCFD-induced NASH C57BL/6JNifdc mouse model assessed as reduction in liver/body weight ratio at 50 mg/kg, po administered once daily for 4 weeks; assay type: functional, organism-based
Mus musculus [11] = assay: Antiinflammatory activity in HFCFD-induced NASH C57BL/6JNifdc mouse model assessed as change inflammatory infiltration at 50 mg/kg, po administered once daily for 4 weeks by H and E staining based analysis; assay type: functional, organism-based
[12] = biological target: T1, 5'-AMP-activated protein kinase (Mus musculus); assay: Agonist activity at AMPK in mouse C2C12 cells assessed as increase in PGC-1alpha mRNA level; assay type: cell-based; settings: filed as agonist, dose <= 30.0 µM
Mus musculus [13] = assay: Reduction in hepatic steatosis in HFCFD-induced NASH po dosed C57BL/6JNifdc mouse model assessed as decrease in lipid droplets administered once daily for 4 weeks by H and E staining based analysis; assay type: functional, organism-based; settings: dose 25-50 mg/kg
Mus musculus [14] = assay: Antiinflammatory activity in NASH C57BL/6JNifdc po dosed mouse model assessed as decrease in NF-kappaB p65 phosphorylation level administered once daily for 4 weeks by Western blot analysis; assay type: functional, organism-based; settings: dose 25-50 mg/kg
Mus musculus [15] = assay: Antiinflammatory activity in HFCFD-induced NASH po dosed C57BL/6JNifdc mouse model assessed as downregulation of CCL2 expression administered once daily for 4 weeks; assay type: functional, organism-based; settings: dose 25-50 mg/kg
Mus musculus [16] = assay: Antiinflammatory activity in HFCFD-induced NASH po dosed C57BL/6JNifdc mouse model assessed as downregulation of IL-12beta expression administered once daily for 4 weeks; assay type: functional, organism-based; settings: dose 25-50 mg/kg
Mus musculus [17] = assay: Antiinflammatory activity in HFCFD-induced NASH po dosed C57BL/6JNifdc mouse model assessed as downregulation of IL-1beta expression administered once daily for 4 weeks; assay type: functional, organism-based; settings: dose 25-50 mg/kg
Mus musculus [18] = assay: Antiinflammatory activity in HFCFD-induced NASH C57BL/6JNifdc mouse model assessed as decrease in ALT serum level at 50 mg/kg, po administered once daily for 4 weeks by automated biochemical analyzer; assay type: functional, organism-based
[19] = biological target: T1, 5'-AMP-activated protein kinase (Mus musculus); assay: Agonist activity at AMPK in mouse C2C12 cells assessed as stimulation of AMPK phosphorylation at upto 30 uM; assay type: cell-based; settings: filed as agonist
Mus musculus [20] = assay: Anti-fibrosis effect in HFCFD-induced NASH C57BL/6JNifdc mouse model assessed as downregulation of Col3a1 mRNA level at 25 to 50 mg/kg, po administered once daily for 4 weeks; assay type: functional, organism-based; settings: dose 25-50 mg/kg
Mus musculus [21] = assay: Reduction in hepatic steatosis in HFCFD-induced NASH C57BL/6JNifdc mouse model assessed as reduction in liver weight at 50 mg/kg, po administered once daily for 4 weeks; assay type: functional, organism-based
Mus musculus [22] = assay: Antiinflammatory activity in HFCFD-induced NASH po dosed C57BL/6JNifdc mouse model assessed as downregulation of CCL4 expression administered once daily for 4 weeks; assay type: functional, organism-based; settings: dose 25-50 mg/kg
Mus musculus [23] = assay: Anti-fibrosis effect in HFCFD-induced NASH C57BL/6JNifdc mouse model assessed as downregulation of Col1a1 mRNA level at 25 to 50 mg/kg, po administered once daily for 4 weeks; assay type: functional, organism-based; settings: dose 25-50 mg/kg
Mus musculus [24] = assay: Antiinflammatory activity in HFCFD-induced NASH C57BL/6JNifdc mouse model assessed as decrease in AST serum level at 50 mg/kg, po administered once daily for 4 weeks by automated biochemical analyzer; assay type: functional, organism-based
Mus musculus [25] = assay: Anti-fibrosis effect in HFCFD-induced NASH C57BL/6JNifdc mouse model assessed as downregulation of alpha-SMA mRNA level at 25 to 50 mg/kg, po administered once daily for 4 weeks; assay type: functional, organism-based; settings: dose 25-50 mg/kg
Mus musculus [26] = assay: Antiinflammatory activity in HFCFD-induced NASH po dosed C57BL/6JNifdc mouse model assessed as downregulation of CCL5 expression administered once daily for 4 weeks; assay type: functional, organism-based; settings: dose 25-50 mg/kg
Mus musculus [27] = assay: Antiinflammatory activity in HFCFD-induced NASH po dosed C57BL/6JNifdc mouse model assessed as downregulation of TNFalpha expression administered once daily for 4 weeks; assay type: functional, organism-based; settings: dose 25-50 mg/kg
Mus musculus [28] = assay: Reduction in hepatic steatosis in HFCFD-induced NASH po dosed C57BL/6JNifdc mouse model assessed as decrease in hepatocellular vacuolization administered once daily for 4 weeks by H and E staining based analysis; assay type: functional, organism-based; settings: dose 25-50 mg/kg
Mus musculus [29] = assay: Reduction in hepatic steatosis in HFCFD-induced NASH C57BL/6JNifdc mouse model assessed as decrease in neutral fat at 25 to 50 mg/kg, po administered once daily for 4 weeks by Oil red-O staining based assay; assay type: functional, organism-based; settings: dose 25-50 mg/kg

- IC50 (RAW264.7 [2]): 15 µM
Compound: O=C(COc1ccc(C(=O)c2ccccc2)cc1)NC1CCN(Cc2ccccc2)CC1
- Activity (RAW264.7 [1]): 96.32%
- Activity (RAW264.7 [3]): Active
- Activity (RAW264.7 [4]): Active

- IC50 (RAW264.7 [2]): 9.76 µM
Compound: CC(C)(Oc1ccc(C(=O)c2ccc(Cl)cc2)cc1)C(=O)NC1CCN(Cc2ccc(OC(F)(F)F)cc2)CC1
- Activity (RAW264.7 [1]): 88.34%

Compound: CC(C)(Oc1ccc(Cl)cc1)C(=O)NC1CCN(Cc2ccccc2)CC1
- Activity (RAW264.7 [3]): inactive

- IC50 (RAW264.7 [2]): 6.54 µM
Compound: Cc1ccc(CN2CCC(NC(=O)C(C)(C)CCCOc3cc(C)ccc3C)CC2)cc1
- Activity (RAW264.7 [1]): 42.67%

- IC50 (RAW264.7 [2]): 14.8 µM
Compound: Cc1ccc(C)c(OCCCC(C)(C)C(=O)NC2CCN(Cc3ccc(Cl)cc3)CC2)c1
- Activity (RAW264.7 [1]): 68.99%

- IC50 (RAW264.7 [2]): 5.17 µM
Compound: Cc1ccc(C)c(OCCCC(C)(C)C(=O)NC2CCN(Cc3ccc(C(F)(F)F)cc3)CC2)c1
- Activity (RAW264.7 [1]): 93.12%

- IC50 (RAW264.7 [2]): 4.57 µM
Compound: COc1ccc(CN2CCC(NC(=O)C(C)(C)Oc3ccc(C(=O)c4ccc(Cl)cc4)cc3)CC2)cc1
- Activity (RAW264.7 [1]): 4.08%

Compound: CC(C)(Oc1ccc(C(=O)c2ccc(Cl)cc2)cc1)C(=O)NC1CCN(Cc2ccccc2)CC1
- Activity (RAW264.7 [3]): Active

- Activity [7]: Active
- IC50 (RAW264.7 [2]): 4.4 µM
- Activity [12]: Dose-Dependent Effect
- Activity [19]: Active
Compound: CC(C)(Oc1ccc(C(=O)c2ccc(Cl)cc2)cc1)C(=O)NC1CCN(Cc2ccc(C(F)(F)F)cc2)CC1
- Activity (Mus musculus [5]): Active
- Activity (Mus musculus [6]): Active
- Activity (RAW264.7 [1]): 98.46%
- Activity (Mus musculus [8]): Active
- Activity (RAW264.7 [9]): Active
- Activity (Mus musculus [10]): Active
- Activity (Mus musculus [11]): Active
- Activity (Mus musculus [13]): Dose-Dependent Effect
- Activity (Mus musculus [14]): Dose-Dependent Effect
- Activity (Mus musculus [15]): Dose-Dependent Effect
- Activity (Mus musculus [16]): Dose-Dependent Effect
- Activity (Mus musculus [17]): Dose-Dependent Effect
- Activity (Mus musculus [18]): Active
- Activity (Mus musculus [20]): Active
- Activity (Mus musculus [21]): Active
- Activity (Mus musculus [22]): Dose-Dependent Effect
- Activity (Mus musculus [23]): Active
- Activity (Mus musculus [24]): Active
- Activity (Mus musculus [25]): Active
- Activity (Mus musculus [26]): Dose-Dependent Effect
- Activity (Mus musculus [27]): Dose-Dependent Effect
- Activity (Mus musculus [28]): Dose-Dependent Effect
- Activity (Mus musculus [29]): Active

- IC50 (RAW264.7 [2]): 4.15 µM
Compound: COc1ccc(CN2CCC(NC(=O)C(C)(C)CCCOc3cc(C)ccc3C)CC2)cc1
- Activity (RAW264.7 [1]): 7.19%

- IC50 (RAW264.7 [2]): 8.56 µM
Compound: Cc1ccc(CN2CCC(NC(=O)C(C)(C)Oc3ccc(C(=O)c4ccc(Cl)cc4)cc3)CC2)cc1
- Activity (RAW264.7 [1]): 4.64%

Compound: Cc1ccc(C)c(OCCCC(C)(C)C(=O)NC2CCN(Cc3ccccc3)CC2)c1
- Activity (RAW264.7 [3]): Active

- IC50 (RAW264.7 [2]): 10.2 µM
Compound: COc1ccc(CN2CCC(NC(=O)COc3ccc(C(=O)c4ccc(Cl)cc4)cc3)CC2)cc1
- Activity (RAW264.7 [1]): 3.33%

- IC50 (RAW264.7 [2]): 4.56 µM
Compound: Cc1ccc(C)c(OCCCC(C)(C)C(=O)NC2CCN(Cc3ccc(F)cc3)CC2)c1
- Activity (RAW264.7 [1]): 78.02%

From ChEMBL document CHEMBL5247580, “Discovery of novel AdipoRon analogues as potent anti-inflammatory agents against nonalcoholic steatohepatitis” (Eur J Med Chem, 2022)
